# According to patent US20040023861A1, “Cysteinyl leukotriene receptor 2 (cysl t2)” (priority 2000, published 2004):
# Columns and labels:
# HIPHUM0000007 = target: T1, HIPHUM0000007 (Homo sapiens, UniProt Q9NS75); assay: Antagonist activity against 20 nM LTD4 (NFAT luciferase reporter gene assay and FLIPR assay) at HIPHUM0000007; assay type: cell-based; details: concentration dependent inhibition of 20 nM LTD4; reporter gene and FLIPR assays
# T1 construct: expressed in transfected cells; host or cells: CHO cells with stably integrated NFAT-luciferase reporter (CHONFAT)
# T1 sequence (Q9NS75 1-346): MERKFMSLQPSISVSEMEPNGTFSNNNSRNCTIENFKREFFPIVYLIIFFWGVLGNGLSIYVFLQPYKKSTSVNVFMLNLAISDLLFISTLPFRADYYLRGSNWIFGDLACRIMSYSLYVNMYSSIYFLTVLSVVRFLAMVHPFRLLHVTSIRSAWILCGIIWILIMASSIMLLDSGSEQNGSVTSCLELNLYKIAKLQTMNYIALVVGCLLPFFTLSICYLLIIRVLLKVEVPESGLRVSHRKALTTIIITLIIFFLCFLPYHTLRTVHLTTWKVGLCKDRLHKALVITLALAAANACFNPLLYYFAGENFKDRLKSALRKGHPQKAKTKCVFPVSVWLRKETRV
# CysLT1 = target: T2, CysLT1 (Homo sapiens, UniProt Q9Y271); assay: Antagonist activity against 20 nM LTD4 (NFAT luciferase reporter gene assay and FLIPR assay) at CysLT1; assay type: cell-based; details: concentration dependent inhibition of 20 nM LTD4; reporter gene and FLIPR assays
# T2 construct: expressed in transfected cells; host or cells: CHO cells with stably integrated NFAT-luciferase reporter (CHONFAT)
# T2 sequence (Q9Y271 1-337): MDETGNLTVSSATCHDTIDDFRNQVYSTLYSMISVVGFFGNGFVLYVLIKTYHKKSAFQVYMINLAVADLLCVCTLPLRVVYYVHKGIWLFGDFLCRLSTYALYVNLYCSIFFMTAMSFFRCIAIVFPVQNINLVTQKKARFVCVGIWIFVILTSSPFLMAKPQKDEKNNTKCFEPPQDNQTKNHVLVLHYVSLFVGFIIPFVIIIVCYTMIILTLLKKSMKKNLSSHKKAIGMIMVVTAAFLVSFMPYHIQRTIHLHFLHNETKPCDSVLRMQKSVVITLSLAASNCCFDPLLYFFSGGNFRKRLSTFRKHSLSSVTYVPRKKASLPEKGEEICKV
# anesthetized rats = assay: Effect of LTD4 on hemodynamics and ECG parameters in anesthetized rats; assay type: in vivo
# Method: Adult male wistar rats (270-300 g) were used. On arrival in the animal care unit, rats were housed with free access to food and water. Room temperature (19-20° C.), relative humidity (55-60%) and light (switched on 7:00am-7:00pm) were maintained constant. An adaptation period of at least 6 days was respected before experimentation.
# Aninals (n=3-4) were anesthetized by administration of pentobarbital (50/60 mg/kg, i.v.). Then, animals were placed on a heatcd (36° C.) operating table and ventilated with room air (Harvard respirator, 50-52 str/min, 7 ml/kg tidal volume). Systemic arterial blood pressure was monitored routinely from the left carotid artery (P23XL, Gould). Body temperature was controlled with a thermistor probe (Digi-sense, Cole-Parmer) and maintained within physiological range throughout the experiment by heating when necessary. A Lead 11 ECG was recorded via needle electrodes to evaluate ECG intervals and heart rate and a corrected QT interval by linear regression (QTL) was calculated according to Todt(13). All parameters were monitored on a Gould thermal array polyrecorder.
# The volume of injection was normalized to 1 ml/kg. In rats receiving CysLT1 antagonists as pretreatment, the compounds were previously dissolved in ethanol (2% final concentration) or distilled water and mixed in encapsin 6% for intragastric afministration (single dose of 3 μmol/kg-10 ml/kg total volume).
# Results were expressed as mean±SEM Hemodynamic and electrocardiographic variables were compared using Anova followed by multiple comparisons tests (Newmam Keuls or Tukey's test as appropriate). Values of p <0.05 were considered significant.
smiles,measurement,setting,value
CCCCC/C=C\C\C=C/C=C/C=C/[C@@H](Sc1ccc(C(=O)O)cc1)[C@@H](O)CCCC(=O)O [BayU9773],antagonist activity at HIPHUM0000007,HIPHUM0000007,low potency
same,antagonist activity at CysLT1,CysLT1,low potency
CCCCC/C=C\C\C=C/C=C/C=C/[C@@H](SC[C@H](N)C(=O)NCC(=O)O)[C@@H](O)CCCC(=O)O [LTD4],effect on blood pressure,"anesthetized rats; LTD4 i.v. injection 20, 40 and 100 nmol/kg, anesthetized rats",affected blood pressure in a dose-dependent manner
same,reduction in heart rate,"anesthetized rats; bolus intravenous administration of LTD4, anesthetized rats",20-30%
same,rhythm disturbances (arrhythmias),"anesthetized rats; repeated administration of LTD4, doses in the range of 40 to 60 nmol/kg, anaesthetised rats",induced marked rhythm disturbances
CN(C)C(=O)CCSC(SCCC(=O)O)c1cccc(/C=C/c2ccc3ccc(Cl)cc3n2)c1 (stereo not drawn) [MK571],effect of CysLT1 antagonist on LTD4 response on blood pressure,"anesthetized rats; antagonist 3 μmol/kg oral 10 min or 0.3 μmol/kg i.v. 5 min before LTD4 i.v., anesthetized rats",modest partial inhibition
same,effect of pretreatment on LTD4-induced reduction in heart rate,"anesthetized rats; pretreatment with CysLT1 antagonist before LTD4 i.v., anesthetized rats",not significantly altered
CC(C)(O)c1ccccc1CC[C@@H](SCC1(CC(=O)O)CC1)c1cccc(/C=C/c2ccc3ccc(Cl)cc3n2)c1 [Montelukast],antagonist activity at HIPHUM0000007,HIPHUM0000007,inactive
COc1cc(C(=O)NS(=O)(=O)c2ccccc2C)ccc1Cc1cn(C)c2ccc(NC(=O)OC3CCCC3)cc12 [Zafirlukast],antagonist activity at CysLT1,CysLT1,acted as antagonists
